Read-outs that look alike come from different tables or passages of the source.
Target: T1, human M2 receptor (Homo sapiens, UniProt P08172)
T1 sequence (P08172 1-466): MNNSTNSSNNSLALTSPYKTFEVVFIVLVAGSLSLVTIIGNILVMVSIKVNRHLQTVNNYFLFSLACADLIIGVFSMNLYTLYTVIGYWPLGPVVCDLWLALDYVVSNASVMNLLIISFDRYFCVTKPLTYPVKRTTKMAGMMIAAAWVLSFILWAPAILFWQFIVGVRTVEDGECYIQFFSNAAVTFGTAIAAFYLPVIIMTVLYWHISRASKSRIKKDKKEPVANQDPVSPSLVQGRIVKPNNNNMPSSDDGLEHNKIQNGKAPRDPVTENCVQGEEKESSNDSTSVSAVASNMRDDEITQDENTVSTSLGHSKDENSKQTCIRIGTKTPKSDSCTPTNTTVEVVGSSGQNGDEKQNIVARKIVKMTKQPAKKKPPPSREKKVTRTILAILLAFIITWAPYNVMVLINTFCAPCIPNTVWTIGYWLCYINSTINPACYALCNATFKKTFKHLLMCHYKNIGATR
Conditions: for Emax: read-out: Efficiency, boosting of the acetylcholine effect at EC20 acetylcholine concentration

[1] = Receptor activity EC50, M2-GIRK1/4 activation test, acetylcholine at EC20, allosteric potency, in some cases mean values from two or more determinations
[2] = Receptor activity EC50, allosteric potency at EC20 acetylcholine, M2-GIRK1/4 reporter cells, in some cases mean of two or more determinations

Row | EC50 [1] [nM] | EC50 [2] [nM] | Emax (M2-GIRK1/4 reporter cells) [%] | Structure (SMILES)
1 | 83 | – | – | Cc1ccc(C(NC(=O)c2cn(-c3ccc(F)cc3F)c3nc(N(C)C)ccc3c2=O)C(F)(F)F)cc1 (racemic) [Example 141, rac-1-(2,4-Difluorophenyl)-7-(dimethylamino)-4-oxo-N-[2,2,2-trifluoro-1-(4-methylphenyl)ethyl]-1,4-dihydro-1,8-naphthyridine-3-carboxamide]
2 | 110 | – | – | Cc1ccccc1C(NC(=O)c1cn(-c2ccc(F)cc2F)c2nc(N(C)C)ccc2c1=O)C(F)(F)F (racemic) [Example 142, rac-1-(2,4-Difluorophenyl)-7-(dimethylamino)-4-oxo-N-[2,2,2-trifluoro-1-(2-methylphenyl)ethyl]-1,4-dihydro-1,8-naphthyridine-3-carboxamide]
3 | 37 | – | – | CN(C)c1ccc2c(=O)c(C(=O)NC(Cc3ccccc3)C(F)(F)F)cn(-c3ccc(F)cc3F)c2n1 (racemic) [Example 143, rac-1-(2,4-Difluorophenyl)-7-(dimethylamino)-4-oxo-N-(1,1,1-trifluoro-3-phenylpropan-2-yl)-1,4-dihydro-1,8-naphthyridine-3-carboxamide]
4 | 32 | – | – | CCCC(NC(=O)c1cn(-c2ccc(F)cc2F)c2nc(N(C)C)ccc2c1=O)C(F)(F)F (racemic) [Example 144, rac-1-(2,4-Difluorophenyl)-7-(dimethylamino)-4-oxo-N-(1,1,1-trifluoropentan-2-yl)-1,4-dihydro-1,8-naphthyridine-3-carboxamide]
5 | 30 | – | – | CC(C)CC(NC(=O)c1cn(-c2ccc(F)cc2F)c2nc(N(C)C)ccc2c1=O)C(F)(F)F (racemic) [Example 145, rac-1-(2,4-Difluorophenyl)-7-(dimethylamino)-4-oxo-N-(1,1,1-trifluoro-4-methylpentan-2-yl)-1,4-dihydro-1,8-naphthyridine-3-carboxamide]
6 | 26 | – | – | CCC(NC(=O)c1cn(-c2ccc(F)cc2F)c2nc(N(C)C)ccc2c1=O)C(F)(F)F (racemic) [Example 146, rac-1-(2,4-Difluorophenyl)-7-(dimethylamino)-4-oxo-N-(1,1,1-trifluorobutan-2-yl)-1,4-dihydro-1,8-naphthyridine-3-carboxamide]
7 | 82 | – | – | CC(NC(=O)c1cn(-c2ccc(F)cc2F)c2nc(N(C)C)ccc2c1=O)C(F)(F)F (racemic) [Example 147, rac-1-(2,4-Difluorophenyl)-7-(dimethylamino)-4-oxo-N-(1,1,1-trifluoropropan-2-yl)-1,4-dihydro-1,8-naphthyridine-3-carboxamide]
8 | 41 | – | – | CN(C)c1ccc2c(=O)c(C(=O)NC(C3CC3)C(F)(F)F)cn(-c3ccc(F)cc3F)c2n1 (racemic) [Example 148, rac-N-(1-Cyclopropyl-2,2,2-trifluoroethyl)-1-(2,4-difluorophenyl)-7-(dimethylamino)-4-oxo-1,4-dihydro-1,8-naphthyridine-3-carboxamide]
9 | 72 | – | – | CC(C)C(NC(=O)c1cn(-c2ccc(F)cc2F)c2nc(N(C)C)ccc2c1=O)C(F)(F)F (racemic) [Example 150, rac-1-(2,4-Difluorophenyl)-7-(dimethylamino)-4-oxo-N-(1,1,1-trifluoro-3-methylbutan-2-yl)-1,4-dihydro-1,8-naphthyridine-3-carboxamide]
10 | 203 | – | – | CC(COC(F)(F)F)NC(=O)c1cn(-c2ccc(F)cc2F)c2nc(N3CCCC3=O)ccc2c1=O (racemic) [Example 230, rac-1-(2,4-Difluorophenyl)-4-oxo-7-(2-oxopyrrolidin-1-yl)-N-[1-(trifluoromethoxy)propan-2-yl]-1,4-dihydro-1,8-naphthyridine-3-carboxamide]
11 | 109 | – | – | O=C(NC(c1c(F)cccc1F)C(F)(F)F)c1cn(-c2ccc(F)cc2F)c2nc(N3CCC(O)CC3=O)ccc2c1=O (racemic) [Example 252, rac-1-(2,4-Difluorophenyl)-N-[1-(2,6-difluorophenyl)-2,2,2-trifluoroethyl]-7-[4-hydroxy-2-oxopiperidin-1-yl]-4-oxo-1,4-dihydro-1,8-naphthyridine-3-carboxamide]
12 | 280 | – | – | CC[C@@H](NC(=O)c1cn(-c2c(F)cccc2F)c2nc(N3CC(CO)OC3=O)ccc2c1=O)C(F)(F)F (mixture of isomers) [Example 260, rac-1-(2,6-Difluorophenyl)-7-[5-(hydroxymethyl)-2-oxo-1,3-oxazolidin-3-yl]-4-oxo-N-[(2R)-1,1,1-trifluorobutan-2-yl]-1,4-dihydro-1,8-naphthyridine-3-carboxamide]
13 | 440 | – | – | CC[C@@H](NC(=O)c1cn(-c2ccc(F)cc2F)c2nc(N3CCOC(C(F)F)C3)ccc2c1=O)C(F)(F)F (mixture of isomers) [Example 263, 7-[2-(Difluoromethyl)morpholin-4-yl]-1-(2,4-difluorophenyl)-4-oxo-N-[(2R)-1,1,1-trifluorobutan-2-yl]-1,4-dihydro-1,8-naphthyridine-3-carboxamide]
14 | 40 | – | – | O=C(NC(C1CC1)C(F)(F)F)c1cn(-c2ccc(F)cc2F)c2nc(N3C[C@@H](O)CC3=O)ccc2c1=O (mixture of isomers) [Example 283]
15 | 59 | – | – | CC[C@@H](NC(=O)c1cn(-c2c(F)cccc2F)c2nc(N3CCC(O)C3=O)ccc2c1=O)C(F)(F)F (mixture of isomers) [Example 292, 1-(2,6-Difluorophenyl)-7-[3-hydroxy-2-oxopyrrolidin-1-yl]-4-oxo-N-[(2R)-1,1,1-trifluorobutan-2-yl]-1,4-dihydro-1,8-naphthyridine-3-carboxamide]
16 | 28 | – | – | C[C@H](NC(=O)c1cn(-c2c(F)cc(F)cc2F)c2nc(N3CC4CC4(O)C3)ccc2c1=O)C(F)(F)F (mixture of isomers) [Example 316, 7-[1-Hydroxy-3-azabicyclo[3.1.0]hex-3-yl]-4-oxo-1-(2,4,6-trifluorophenyl)-N-[(2S)-1,1,1-trifluoropropan-2-yl]-1,4-dihydro-1,8-naphthyridine-3-carboxamide]
17 | 25 | – | – | O=C(N[C@H](C1CC1)C(F)(F)F)c1cn(-c2c(F)cccc2F)c2nc(N3CC4CC4(O)C3)ccc2c1=O (mixture of isomers) [Example 319, N-[(1R)-1-Cyclopropyl-2,2,2-trifluoroethyl]-1-(2,6-difluorophenyl)-7-[1-hydroxy-3-azabicyclo[3.1.0]hex-3-yl]-4-oxo-1,4-dihydro-1,8-naphthyridine-3-carboxamide]
18 | 47 | – | – | CC1(O)CCN(c2ccc3c(=O)c(C(=O)NC(C4CC4)C(F)(F)F)cn(-c4c(F)cccc4F)c3n2)C1 (racemic) [Example 326, N-[1-Cyclopropyl-2,2,2-trifluoroethyl]-1-(2,6-difluorophenyl)-7-[3-hydroxy-3-methylpyrrolidin-1-yl]-4-oxo-1,4-dihydro-1,8-naphthyridine-3-carboxamide]
19 | – | 10 | 100 | CC[C@H](NC(=O)c1cn(-c2c(F)cc(F)cc2Cl)c2nc(N3CC4CC4(O)C3)ccc2c1=O)C(F)(F)F (mixture of isomers) [Example 413, 1-(2-Chloro-4,6-difluorophenyl)-7-[1-hydroxy-3-azabicyclo[3.1.0]hex-3-yl]-4-oxo-N-[(2S)-1,1,1-trifluorobutan-2-yl]-1,4-dihydro-1,8-naphthyridine-3-carboxamide]
20 | – | 6 | 96 | O=C(N[C@H](C1CC1)C(F)(F)F)c1cn(-c2c(F)cc(F)cc2Cl)c2nc(N3CC4CC4(O)C3)ccc2c1=O (mixture of isomers) [Example 415, 1-(2-Chloro-4,6-difluorophenyl)-N-[(1R)-1-cyclopropyl-2,2,2-trifluoroethyl]-7-[1-hydroxy-3-azabicyclo[3.1.0]hex-3-yl]-4-oxo-1,4-dihydro-1,8-naphthyridine-3-carboxamide]
